Data published in paper PMC10999543, “Identification of kinase modulators as host-directed therapeutics against intracellular methicillin-resistant Staphylococcus aureus” (Frontiers in Cellular and Infection Microbiology, 2024).
Read-outs that look alike come from different tables or passages of the source.

Assays:
intracellular MRSA = type: cell-based, Staphylococcus aureus; conditions: for z-scoreMRSA+ mean: mean of 3 replicates; for z-scoreMRSA+ rep 1 / %GFP+ rep 1: replicate 1; for z-scoreMRSA+ rep 2 / %GFP+ rep 2: replicate 2; for z-scoreMRSA+ rep 3 / %GFP+ rep 3: replicate 3
Procedure, shortened: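 HeLa, MRSA-GFP at MOI ~6.8, 1 h infection; gentamicin 30 µg/ml for 15 min; inhibitor plus gentamicin 5 µg/ml overnight, 37°C/5% CO2; triplicate plates; FACS %GFP+ and cell count; hit = z ≤ -2 MRSA+, z ≥ -3 count.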

HeLa cells = assay: Compound screen by flow cytometry: HeLa cell count as surrogate readout of cell viability (z-scoreHeLa); type: cell-based, human; conditions: for z-scoreHeLa mean: mean of 3 replicates; for z-scoreHeLa rep 1 / cell count rep 1: replicate 1; for z-scoreHeLa rep 2 / cell count rep 2: replicate 2; for z-scoreHeLa rep 3 / cell count rep 3: replicate 3
Procedure, shortened: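 HeLa cells were infected with GFP-MRSA (mean MOI 6.8 ± 4.6) for 1 h, and extracellular bacteria were killed with 30 µg/ml gentamicin. Cells were then incubated overnight with kinase inhibitors in 5 µg/ml gentamicin, in triplicate against DMSO controls. Flow-cytometric cell count served as a viability surrogate, expressed as a plate z-score.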

[1] = PKIS compound screen, Yes/No call
[2] = PKIS compound screen, Yes/No call (effect without cell death)
[3] = PKIS compounds raw data, MRSA-infected HeLa cells
[4] = PKIS compounds raw data, HeLa cell count
[5] = PKIS compound screen raw data, MRSA-infected HeLa cells
[6] = PKIS compound screen, MRSA-infected HeLa cells
[7] = PKIS compound screen, Yes/No call on z-scoreMRSA+
[8] = PKIS compound screen raw data, HeLa cell count
[9] = PKIS compound screen, HeLa cell count
[10] = PKIS compound screen, Yes/No call on z-scoreHeLa
[11] = Yes/No: effect without cell death
[12] = compound screen, MRSA-infected HeLa cells
[13] = compound screen, HeLa cell count

| SMILES | hit (intracellular MRSA; [2]) | %GFP+ rep 1 (intracellular MRSA; [3]) [%] | %GFP+ rep 2 (intracellular MRSA; [3]) [%] | %GFP+ rep 3 (intracellular MRSA; [3]) [%] | cell count rep 1 (HeLa cells; [4]) | cell count rep 2 (HeLa cells; [4]) | cell count rep 3 (HeLa cells; [4]) | %GFP+ rep 1 (intracellular MRSA; [5]) [%] | %GFP+ rep 2 (intracellular MRSA; [5]) [%] | %GFP+ rep 3 (intracellular MRSA; [5]) [%] | z-scoreMRSA+ mean (intracellular MRSA; [6]) | z-scoreMRSA+ rep 1 (intracellular MRSA; [6]) | z-scoreMRSA+ rep 2 (intracellular MRSA; [6]) | z-scoreMRSA+ rep 3 (intracellular MRSA; [6]) | effect (intracellular MRSA; [7]) | cell count rep 1 (HeLa cells; [8]) | cell count rep 2 (HeLa cells; [8]) | cell count rep 3 (HeLa cells; [8]) | z-scoreHeLa mean (HeLa cells; [9]) | z-scoreHeLa rep 1 (HeLa cells; [9]) | other results |
| --- | --- | --- | --- | --- | --- | --- | --- | --- | --- | --- | --- | --- | --- | --- | --- | --- | --- | --- | --- | --- | --- |
| COc1cc(/C=N/Nc2ncnc3[nH]ncc23)ccc1O [GW578748X] | No | 10.3 | 10.1 | 10.9 | 4206 | 5592 | 7495 |  |  |  |  |  |  |  |  |  |  |  |  |  | effect (intracellular MRSA; [1]): No; z-scoreMRSA+ mean (intracellular MRSA; PKIS compound screen): -1.18; z-scoreMRSA+ rep 1 (intracellular MRSA; PKIS compound screen): -0.92; z-scoreMRSA+ rep 2 (intracellular MRSA; PKIS compound screen): -1.14; z-scoreMRSA+ rep 3 (intracellular MRSA; PKIS compound screen): -1.48; cell death (HeLa cells; [1]): No; z-scoreHeLa mean (HeLa cells; PKIS compound screen): 0.25; z-scoreHeLa rep 1 (HeLa cells; PKIS compound screen): -0.52; z-scoreHeLa rep 2 (HeLa cells; PKIS compound screen): 1.00; z-scoreHeLa rep 3 (HeLa cells; PKIS compound screen): 0.26 |
| COc1cc(C)c(N(C)C(=O)CN(C)C)cc1Nc1nc(Nc2cccc(F)c2C(N)=O)c2cc[nH]c2n1 [GSK2219385A] | No |  |  |  |  |  |  | 15.2 | 16.3 | 17.5 | -0.74 | -0.84 | -0.67 | -0.70 | No | 14421 | 25742 | 38560 | -0.95 | -0.86 | z-scoreHeLa rep 2 (HeLa cells; [9]): -1.69; z-scoreHeLa rep 3 (HeLa cells; [9]): -0.31; cell death (HeLa cells; [10]): No |
| CS(=O)(=O)CCNCc1nc(-c2ccc3ncnc(Nc4ccc(OCc5cccc(F)c5)c(Cl)c4)c3c2)cs1 [GW583340C] |  | 17.5 | 15.0 | 17.3 | 5969 | 5507 | 7162 |  |  |  |  |  |  |  |  |  |  |  |  |  | effect (intracellular MRSA; Yes/No call from z-scoreMRSA+): No; hit (intracellular MRSA; [11]): No; z-scoreMRSA+ mean (intracellular MRSA; [12]): -1.71; z-scoreMRSA+ rep 1 (intracellular MRSA; [12]): -1.81; z-scoreMRSA+ rep 2 (intracellular MRSA; [12]): -1.85; z-scoreMRSA+ rep 3 (intracellular MRSA; [12]): -1.47; cell death (HeLa cells; Yes/No call from z-scoreHeLa): No; z-scoreHeLa mean (HeLa cells; [13]): 1.10; z-scoreHeLa rep 1 (HeLa cells; [13]): 1.17; z-scoreHeLa rep 2 (HeLa cells; [13]): 0.93; z-scoreHeLa rep 3 (HeLa cells; [13]): 1.22 |
| Nc1nonc1-c1nc2cnccc2n1C1CCCCC1 [SB-734117] |  | 14.7 | 14.0 | 13.2 | 2677 | 2902 | 5031 |  |  |  |  |  |  |  |  |  |  |  |  |  | effect (intracellular MRSA; Yes/No call from z-scoreMRSA+): No; hit (intracellular MRSA; [11]): No; z-scoreMRSA+ mean (intracellular MRSA; [12]): -0.0455; z-scoreMRSA+ rep 1 (intracellular MRSA; [12]): 0.49; z-scoreMRSA+ rep 2 (intracellular MRSA; [12]): 0.17; z-scoreMRSA+ rep 3 (intracellular MRSA; [12]): -0.79; cell death (HeLa cells; Yes/No call from z-scoreHeLa): No; z-scoreHeLa mean (HeLa cells; [13]): -1.28; z-scoreHeLa rep 1 (HeLa cells; [13]): -1.90; z-scoreHeLa rep 2 (HeLa cells; [13]): -1.03; z-scoreHeLa rep 3 (HeLa cells; [13]): -0.92 |
| CCn1c(-c2nonc2N)nc2c(C#CC(C)(C)O)nc(OC[C@@H](N)c3ccccc3)cc21 [GSK938890A] | No |  |  |  |  |  |  | 12.8 | 14.8 | 15.1 | -1.38 | -1.60 | -1.12 | -1.43 | No | 14299 | 35410 | 42196 | -0.17 | -0.88 | z-scoreHeLa rep 2 (HeLa cells; [9]): 0.12; z-scoreHeLa rep 3 (HeLa cells; [9]): 0.27; cell death (HeLa cells; [10]): No |
| CC(C)c1nc(-c2cccc(NS(=O)(=O)c3c(F)cccc3F)c2)c(-c2ccnc(Nc3ccc(N4CCOCC4)nc3)n2)s1 [GSK1723980B] |  |  |  |  |  |  |  | 10.5 | 11.7 | 10.2 |  |  |  |  |  | 2167 | 1981 | 2206 |  |  | effect (intracellular MRSA; Yes/No call from z-scoreMRSA+): Yes; hit (intracellular MRSA; [11]): Yes; z-scoreMRSA+ mean (intracellular MRSA; [12]): -3.23; z-scoreMRSA+ rep 1 (intracellular MRSA; [12]): -3.44; z-scoreMRSA+ rep 2 (intracellular MRSA; [12]): -2.65; z-scoreMRSA+ rep 3 (intracellular MRSA; [12]): -3.59; cell death (HeLa cells; Yes/No call from z-scoreHeLa): No; z-scoreHeLa mean (HeLa cells; [13]): -1.76; z-scoreHeLa rep 1 (HeLa cells; [13]): -1.58; z-scoreHeLa rep 2 (HeLa cells; [13]): -1.79; z-scoreHeLa rep 3 (HeLa cells; [13]): -1.92 |
| Cc1cc(-c2ccc3c(c2)CC[C@@H](N[C@@H](C)c2ccccc2)C3)cnc1N [GW412617A] | No |  |  |  |  |  |  | 20.0 | 21.4 | 20.6 | 0.60 | 0.68 | 0.86 | 0.25 | No | 42421 | 41709 | 47670 | 1.94 | 3.38 | z-scoreHeLa rep 2 (HeLa cells; [9]): 1.29; z-scoreHeLa rep 3 (HeLa cells; [9]): 1.14; cell death (HeLa cells; [10]): No |
